Source: US20180353398A1, “HAIR CARE REGIMEN USING NA AEROSOL FOAM CONCENTRATED CONDITIONER” (The Procter & Gamble Company, priority 2015, published 2018)
Where a name gives a salt, the structure may show the parent alone.

Assay: Kinematic viscosity of shampoo base formulation with viscosity reducing agent (calibrated viscometers)
Type: physicochemical
Conditions: lowest of 2-8% agent in base formulation, 40° C.
Text: Now referring to Tables 11 and 12, the base formulations were made by mixing 1.6% perfume, 24% linear sodium undecyl sulfate (CAS# 1072-24-8) active, 6% lauramidopropyl betaine (CAS# 4292-10-8) active and 60.4% deionized water which leaves 8% unfilled for the addition of a viscosity reducing agent (the balance being filled in by distilled water). For all compositions, the surfactant, water and additives including viscosity reducing agents were expected to be in a single phase.
The agents from Tables 11 and 12 were added to the base formulation at a percentage of 2%, 4%, 6%, and 8% into the above surfactant solution. The subsequent formulations were vortexed and put into oven at 60° C. overnight to form homogeneous solution. The viscosities of the formulations were measured with calibrated viscometers (Size 200/350/450) from Cannon Instrument Company (2139 High Tech Road, State College, Pa., USA, 16803).
After the equilibration, the formulations were drawn to reach the starting mark with a rubber suction bulb and the flow time between the starting mark and end mark was recorded for calculation. Each formulation was measured three times to calculate average and standard deviation. Between samples, viscometer was cleaned with water and acetone to rinse off residual.
Viscosity values in Table 11 and Table 12 were calculated based on the equation:
Viscosity (mm^2/s. (cSt))=Time (s)*Constant (mm^2/s^2. (cSt/s))
The time in the above equation is the flow time recorded in the experiment and the constant numbers for each calibrated viscometer were obtained from the manuals.

Compound: CCC(CC(C)CC)=NO (stereo not shown) [5-Methyl-3-Heptanone Oxime]
- Lowest viscosity achieved (cSt): 246 cSt

Compound: CC12CCC(CC1=O)C2(C)C (stereo not shown) [Camphor Gum]
- Lowest viscosity achieved (cSt): 127 cSt

Compound: CCC(=O)O[C@@H]1C[C@H]2CC[C@]1(C)C2(C)C (racemic) [Iso Bornyl Propionate]
- Lowest viscosity achieved (cSt): 463 cSt

Compound: C=C(C)[C@H]1CC=C(C)CC1 [Dipentene]
- Lowest viscosity achieved (cSt): 35 cSt

Compound: C=CC(C)(CCC=C(C)C)OC(=O)C(C)C (stereo not shown) [Linalyl Iso Butyrate]
- Lowest viscosity achieved (cSt): 38 cSt

Compound: CC(C)CC=C(C=O)C(C)C [2-Isopropyl-5-methyl-2-hexenal]
- Lowest viscosity achieved (cSt): 332 cSt

Compound: CC(CC=O)CCCC(C)(C)O (stereo not shown) [Hydroxycitronellal]
- Lowest viscosity achieved (cSt): 34 cSt

Compound: CCCCCCC1C(=O)CCC1C(=O)OC (stereo not shown) [Dihyro Iso Jasmonate]
- Lowest viscosity achieved (cSt): 119 cSt

Compound: CC(C)=CCC/C(C)=C/COC(=O)Cc1ccccc1 [Geranyl Phenyl Acetate]
- Lowest viscosity achieved (cSt): 34 cSt

Compound: CC(=O)CCc1ccc(O)cc1 [Raspberry Ketone]
- Lowest viscosity achieved (cSt): 33 cSt

Compound: CC1=CCC(C(C)C)=CC1 [gamma-Terpinene]
- Lowest viscosity achieved (cSt): 32 cSt

Compound: CCC(=O)OC1CC2CC1C1CC=CC21 (stereo not shown) [Cyclaprop]
- Lowest viscosity achieved (cSt): 404 cSt

Compound: CC12CCC(CC1)C(C)(C)O2 [Eucalyptol]
- Lowest viscosity achieved (cSt): 203 cSt

Compound: CC1=CC=C(C(C)C)CC1 [alpha-Terpinene]
- Lowest viscosity achieved (cSt): 42 cSt

Compound: CCCCCC(=O)OCC(C)C [Isobutyl Hexanoate]
- Lowest viscosity achieved (cSt): 109 cSt

Compound: C=C(C)[C@H]1CC=C(C)CC1 [Limonene]
- Lowest viscosity achieved (cSt): 86 cSt

Compound: CC(C)COC(=O)c1ccccc1O [Iso Butyl Salicylate]
- Lowest viscosity achieved (cSt): 409 cSt

Compound: CCCCCCCC(OC)OC [1,1-Dimethoxyoctane]
- Lowest viscosity achieved (cSt): 308 cSt

Compound: CCCCCC1(C)CCC(C)(C)C1=O (stereo not shown) [Veloutone]
- Lowest viscosity achieved (cSt): 47 cSt

Compound: COC(C)(C)C1CC=C(C)CC1 (stereo not shown) [Orange Flower Ether]
- Lowest viscosity achieved (cSt): 419 cSt

Compound: CCO [Ethanol]
- Lowest viscosity achieved (cSt): 29 cSt

Compound: CC(=O)OCCC(C)CCC=C(C)C (stereo not shown) [Citronellyl Acetate]
- Lowest viscosity achieved (cSt): 363 cSt

Compound: CC(C)CCOC(=O)c1ccccc1O [Isoamyl Salicylate]
- Lowest viscosity achieved (cSt): 193 cSt

Compound: CCCCOC(=O)c1ccccc1O [Butyl Salicylate]
- Lowest viscosity achieved (cSt): 368 cSt

Compound: CC(=O)OCCC(C)CCCC(C)C (stereo not shown) [3,7-Dimethyloctyl Acetate]
- Lowest viscosity achieved (cSt): 446 cSt

Compound: CCOC(=O)CC(O)(CC(=O)OCC)C(=O)OCC [Triethyl Citrate]
- Lowest viscosity achieved (cSt): 41 cSt

Compound: CCCCCCCCCCCCCC(=O)OC(C)C [Iso Propyl Myristate]
- Lowest viscosity achieved (cSt): 30 cSt

Compound: CCCCCCCCCCCCCCCC [Hexadecane]
- Lowest viscosity achieved (cSt): 18 cSt
